Reference: patent publication US20240288446A1, “METHOD FOR DIAGNOSING FIBRINOLYTIC INSUFFICIENCY RELATED TO NEUTROPHIL EXTRACELLULAR TRAPS” (Hôpitaux Universitaires de Strasbourg, priority 2019, published 2024)
Entries after “also recorded” stand apart in the source; their conditions may differ.

Columns and labels:
Format in all cases: biochemical
[1] = biological target: T1, HNE-DNA complexes of NETs (Homo sapiens, UniProt P08246); experiment: Activity of DNA-bound elastase on NETs, chromogenic substrate MeO-Suc-AAPV-pNA; settings: NETs from PMA-stimulated neutrophils, MeO-Suc-AAPV-CMK 100 μM, α1-PI 10 μM, aprotinin 10 μM (FIG. 1B legend)
T1 construct: endogenous in cells
T1 sequence (P08246 30-247 limits assumed): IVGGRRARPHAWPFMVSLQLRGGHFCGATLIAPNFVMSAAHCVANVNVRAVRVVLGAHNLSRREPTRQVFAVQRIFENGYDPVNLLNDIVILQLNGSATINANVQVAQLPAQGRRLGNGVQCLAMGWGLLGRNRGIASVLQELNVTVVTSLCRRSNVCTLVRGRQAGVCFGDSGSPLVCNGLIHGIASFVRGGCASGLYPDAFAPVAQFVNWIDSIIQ
Method: FIGS. 1A-C represent Neutrophil Extracellular Traps (NETs) generated from neutrophils seeded onto a fibrin matrix: DNA and HNE activity of NETs are shown. Neutrophils isolated from human blood and seeded on wells of a 96-wells microtiter plate containing or not a fibrin matrix, were activated by 50 nM PMA in HBSS. After 4 hours incubation at 37° C. in a humidified 5% CO2 incubator, the plate was centrifuged at 3000 g for 5 min, the supernatant was collected and cells and NETs in the well stained with a 10 μg/ml solution of Hoechst 33342 a minor-groove DNA binder. Elastase activity bound to NETs was detected with the chromogenic substrate N-methoxysuccinyl-Ala-Ala-Pro-Val-p-nitroanilide. FIG. 1A represents fluorescence microscopy images (X20) of nuclei and extracellular DNA fibers stained with Hoechst. Scale bars: 20 μm. […] NETs: neutrophil extracellular traps generated in the absence of fibrin. […] C. […] Purified HNE was incubated (15 min) at different concentrations in buffer or plasma before activity measurements with 1.5 mM of the chromogenic substrate N-methoxysuccinyl-Ala-Ala-Pro-Val-p-nitroanilide.
NETs were identified by (1) DNA staining with a 10 μg/ml solution of Hoechst 33342 and (2) measuring the activity of DNA-bound elastase.
To detect elastase bound to NETs, the substrate MeO-Suc-AAPV-pNA (100 μl per well, 1.5 mM final concentration in HBSS) was incubated with NETs after two gentle washes with HBSS. DNA-bound HNE activity was detected in a multi-well plate counter at 37° C. by measuring the release of p-nitroaniline (pNA) at A405 nm.

[2] = biological target: T1, HNE-DNA complexes of NETs; experiment: Plasminogen fragmentation by NETs-bound elastase (SDS-PAGE, Western blot); settings: plasminogen 1 μM; NETs pre-incubated with inhibitor
Method: FIGS. 2A-C represent NETs-associated elastase digests plasminogen into fragments. Samples were analyzed by SDS-PAGE and Western blot using a specific sheep antibody directed against human plasminogen. FIG. 2A-B. Plasminogen fragmentation by NETs HNE•DNA complexes after 30 to 240 min (A) and 2 to 10 hours (B) of incubation. C. Western blot of purified plasminogen (Pg), plasmin (Pn) (left panel) and HNE-DNA-derived plasminogen fragments (middle panel). Plasminogen fragments produced by PMA stimulated neutrophils (middle panel) were not observed (right panel) in the presence of the elastase-specific inhibitor (EI) N-Methoxysuccinyl-Ala-Ala-Pro-Val-chloromethyl ketone.
Fibrin-NETs matrices were achieved by activation with PMA of neutrophils seeded onto fibrin surfaces prepared as described above. The neutrophils were seeded onto the fibrin matrix at 200 000 cells per well and were stimulated with PMA after 1 h plating as indicated above. […] Initial velocities of the reaction were calculated using an ad hoc computer program. • 2. […] HNE activity in samples collected in HBSS was measured with the chromogenic substrate MeO-Suc-AAPV-pNA (100 μl per well, 1.5 mM final concentration in HBSS) as indicated above. […] Signal was detected using the ECL kit from Amersham (Arlington Heights, U.K.) and the Curix-60-AGFA for development. […]

[3] = biological target: T2, HNE-DNA complexes of fibrin-NETs lattice (Homo sapiens, UniProt P08246); experiment: Plasminogen activation by fibrin-bound tPA on fibrin-NETs matrices (plasmin formation)
T2 construct: endogenous in cells
T2 sequence (P08246 30-247 limits assumed): T1 sequence (P08246 30-247 limits assumed)
Method: FIGS. 3A-D represent the decrease in tPA-mediated plasmin formation by NETs formed onto fibrin. Neutrophils isolated from human blood were seeded onto fibrin in a 96-wells microtitre plate and activated by 50 nM PMA in HBSS. After binding of tPA to fibrin, plasminogen at varying concentrations was added to the interlaced NETs-fibrin structure. FIG. 3A-B. Plasmin formation from plasminogen (Pg) at 50 nM (A) and 500 nM (B) was monitored by measuring the released of pNA the plasmin-selective chromogenic substrate at 0.75 mM. Plasmin formation on fibrin. ● Plasmin formation on fibrin-NETs. ▪ Plasmin formation on fibrin-NETs treated with the elastase inhibitor MeO-Suc-AAPV-CMK. FIG. 3 C. After plasminogen activation the wells were carefully washed and the amount of fibrin-bound plasmin detected by adding 0.75 mM of the plasmin-selective chromogenic substrate. Grey bars: plasmin bound to the fibrin-NETs surface. […]
Fibrin-NETs matrices were achieved by activation with PMA of neutrophils seeded onto fibrin surfaces prepared as described above. […] Initial velocities of the reaction were calculated using an ad hoc computer program. • 2. […] HNE activity in samples collected in HBSS was measured with the chromogenic substrate MeO-Suc-AAPV-pNA (100 μl per well, 1.5 mM final concentration in HBSS) as indicated above. […]

| Substance | effect on proteolytic activity of HNE-DNA complexes of NETs [1] | effect on proteolytic activity of HNE-DNA complexes of NETs ([1]; listed as aprotinin) | effect on conversion of plasminogen into fragments by NETs [2] | decrease of plasmin formed and remaining bound to untreated fibrin-NETs lattices compared with lattices in the presence of inhibitor ([3]; FIG. 3C) | plasmin formation / fibrinolytic activity at the fibrin-NET lattice ([3]; fibrin-NET lattice pre-incubated with inhibitor, tPA bound to fibrin) |
| --- | --- | --- | --- | --- | --- |
| Aprotinin | without effect | unable to modify | unable to modify | – | – |
| N-(Methoxysuccinyl)-L-alanyl-L-alanyl-L-prolyl-L-valine chloromethylketone [MeO-Suc-AAPV-CMK] | completely blocked; also recorded: completely inhibited | – | abolished the conversion of plasminogen into fragments; also recorded: plasminogen fragments were absent | around 50% | restored to control values |
